According to paper PMC12195648 (Pharmaceuticals, 2025):
Read-outs that look alike come from different tables or passages of the source.

Columns and labels:
[1] = target: T1, recombinant Abl1 kinase (Homo sapiens, UniProt P00519); experiment: Abl1 kinase inhibition assay (peptide substrate, [γ-33P]ATP); format: biochemical
T1 construct: made in house
Description: The inhibitory activity of the synthesized compounds was assessed on an in-house produced recombinant Abl1 kinase. The assay utilized 500 µM peptide […] as a substrate in the presence of 1 µM ATP + [γ-33P]ATP (0.05 µCi per reaction) and the test compound in a final volume of 10 µL of reaction buffer (60 mM HEPES-NaOH, pH 7.5, 3 mM MgCl2, 3 mM MnCl2, 3 μM Na-orthovanadate, 1.2 mM DTT, 2.5 μg/50 μL PEG20.000). The reaction was terminated by adding 5 µL of 3% aq. H3PO4. Aliquots were spotted onto P-81 phosphocellulose (Whatman, Maidstone, UK), washed three times with 0.5% aq. H3PO4, and air-dried. Peptide phosphorylation was quantified through digital autoradiography (FLA-7000; Fujifilm, Tokyo, Japan).

[2] = system: KCL22 cells; experiment: Cytotoxicity, resazurin assay, KCL22; format: cell-based, human; conditions: for SI (KCL22): GI50 HEK-293T / GI50 KCL22; for GI50: Homo sapiens, KCL-22, 72 h, resazurin, GI50 ± SD
Description: (§1) The development of the KCL22 subclone B8 (T315I, 100%) has been previously detailed. All cell lines were maintained in a humidified incubator at 37 °C and 5% CO2, following the manufacturer’s instructions, in the appropriate medium supplemented with 10% foetal bovine serum, penicillin (100 IU/mL), streptomycin (100 µg/mL), and glutamine (4 mM).
(§2) Cytotoxicity was assessed utilizing resazurin, an indicator dyes that measures oxidation-reduction reactions in the mitochondria of living cells. Cells were seeded into 96-well plates and treated with the compounds for 72 h (six different doses of each compound, in triplicate).

[3] = system: K562 cells; experiment: Cytotoxicity, resazurin assay, K562; format: cell-based, human; conditions: for SI (K562): GI50 HEK-293T / GI50 K562; for GI50: Homo sapiens, K562, 72 h, resazurin, GI50 ± SD
Description: as §1, §2

[4] = system: HEK-293T cells; experiment: Cytotoxicity, resazurin assay, non-neoplastic HEK-293T; format: cell-based; conditions: Homo sapiens, 72 h, GI50 ± SD
Description: as §1, with “The human cell line KCL22 was sourced from the German Collection of Microorganisms and Cell Cultures, while K562 and HEK-293T cells were obtained from the European Collection of Authenticated Cell Cultures. The” for “The”
Cytotoxicity was assessed utilizing resazurin, an indicator dyes that measures oxidation-reduction reactions in the mitochondria of living cells. Cells were seeded into 96-well plates and treated with the compounds for 72 h (six different doses of each compound, in triplicate). After treatment, a solution of resazurin (Merck, Prague, Czech Republic) was added for 4 h, and the fluorescence of resorufin corresponding to viable cell quantity was measured at 544 nm/590 nm (excitation/emission) using a Fluoroskan Ascent microplate reader (LabSystems, Helsinki, Finland).

[5] = system: KCL22-B8 cells; experiment: Cytotoxicity, resazurin assay, KCL22-B8 (Bcr-Abl T315I); format: cell-based, human; conditions: for SI (KCL22-B8): GI50 HEK-293T / GI50 KCL22-B8; for GI50: 72 h, resazurin, GI50 ± SD, Bcr-Abl T315I, imatinib-resistant
Description: as §1, §2

[6] = system: KCL22 cells with Bcr-Abl^T315I; conditions: cited from earlier work
[7] = experimental pIC50 = −logIC50 on Abl, read-out: pIC50 Exp (converted)
[8] = in vitro inhibition of Abl1 kinase, 1 µM ATP, at least three independent experiments, read-out: IC50 Abl

T1 sequence (P00519 whole entry): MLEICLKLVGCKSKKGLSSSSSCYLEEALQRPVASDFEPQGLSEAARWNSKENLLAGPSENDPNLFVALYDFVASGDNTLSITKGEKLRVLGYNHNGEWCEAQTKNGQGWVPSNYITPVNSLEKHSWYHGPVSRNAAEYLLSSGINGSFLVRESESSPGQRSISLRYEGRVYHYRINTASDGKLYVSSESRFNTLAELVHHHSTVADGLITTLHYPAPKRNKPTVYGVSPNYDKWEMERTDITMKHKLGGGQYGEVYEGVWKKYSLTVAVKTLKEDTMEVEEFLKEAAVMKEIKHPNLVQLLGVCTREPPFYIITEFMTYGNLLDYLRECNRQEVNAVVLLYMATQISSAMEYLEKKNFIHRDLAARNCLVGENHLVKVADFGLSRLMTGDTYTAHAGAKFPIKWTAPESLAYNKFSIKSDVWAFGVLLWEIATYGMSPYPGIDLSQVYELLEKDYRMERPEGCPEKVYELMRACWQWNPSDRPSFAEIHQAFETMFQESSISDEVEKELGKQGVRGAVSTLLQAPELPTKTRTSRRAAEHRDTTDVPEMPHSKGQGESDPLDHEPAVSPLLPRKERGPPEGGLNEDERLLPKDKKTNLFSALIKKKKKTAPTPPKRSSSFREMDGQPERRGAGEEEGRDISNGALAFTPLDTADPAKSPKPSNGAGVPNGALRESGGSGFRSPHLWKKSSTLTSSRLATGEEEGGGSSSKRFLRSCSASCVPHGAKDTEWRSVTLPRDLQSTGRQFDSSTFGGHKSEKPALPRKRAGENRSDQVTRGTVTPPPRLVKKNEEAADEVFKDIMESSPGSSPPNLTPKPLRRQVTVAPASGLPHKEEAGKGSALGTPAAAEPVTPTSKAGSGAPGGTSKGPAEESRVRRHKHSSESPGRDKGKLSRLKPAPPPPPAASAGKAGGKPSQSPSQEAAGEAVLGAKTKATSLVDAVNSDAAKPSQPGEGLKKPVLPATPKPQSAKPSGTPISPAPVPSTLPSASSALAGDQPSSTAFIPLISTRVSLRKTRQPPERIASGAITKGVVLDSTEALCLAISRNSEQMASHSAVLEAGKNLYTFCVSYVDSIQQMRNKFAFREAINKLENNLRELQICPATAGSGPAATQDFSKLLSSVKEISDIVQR

Compound | IC50 [1, 7] [µM] | IC50 [1, 8] [µM] | SI (KCL22) [2] | GI50 [2] [µM] | SI (K562) [3] | GI50 [3] [µM] | GI50 [4] [µM] | SI (KCL22-B8) [5] | GI50 ([5]; Homo sapiens) [µM] | fold more potent than 7b ([2]; KCL22 cells, GI50 ratio) | fold more potent than 7b ([3]; K562 cells, GI50 ratio) [fold] | GI50 [5] [µM] | GI50 [6] [µM]
OCCN1CCN(c2ccc(Nc3nc(Nc4ccc(Cl)c(C(F)(F)F)c4)c4ncn(CC5CC5)c4n3)cc2)CC1 [Compound 7f, 2-(4-(4-((6-((4-Chloro-3-(trifluoromethyl)phenyl)amino)-9-(cyclopropylmethyl)-9H-purin-2-yl)amino)phenyl)piperazin-1-yl)ethan-1-ol] | 1.26 | 1.26 ± 0.65 | 0.3 | 12.4 ± 4.28 | 1.1 | 3.56 ± 0.52 | 3.96 ± 0.57 | 0.3 | 15.4 | – | – | 13.8 ± 3.05 | –
COc1cc(Nc2nc(Nc3ccc(N4CCN(CCO)CC4)cc3)nc3c2ncn3CC2CC2)ccc1Br [Compound 7g, 2-(4-(4-((6-((4-Bromo-3-methoxyphenyl)amino)-9-(cyclopropylmethyl)-9H-purin-2-yl)amino)phenyl)piperazin-1-yl)ethan-1-ol] | 0.791 | 0.79 ± 0.14 | 0.8 | 5.51 ± 1.08 | 1.8 | 2.34 ± 1.04 | 4.32 ± 1.42 | 0.3 | 15.4 | – | – | 16.6 ± 0.92 | –
N#Cc1cccc(Nc2nc(Nc3ccc(N4CCN(CCO)CC4)cc3)nc3c2ncn3CC2CC2)c1 [Compound 7b, 3-((9-(Cyclopropylmethyl)-2-((4-(4-(2-hydroxyethyl)piperazin-1-yl)phenyl)amino)-9H-purin-6-yl)amino)benzonitrile] | 0.46 | 0.46 ± 0.15 | 1.1 | 13.1 ± 2.21 | 3.6 | 4.04 ± 1.87 | 14.8 ± 0.91 | 0.8 | 17.9 ± 2.71 | – | – | – | –
Cc1cn(-c2cc(NC(=O)c3ccc(C)c(Nc4nccc(-c5cccnc5)n4)c3)cc(C(F)(F)F)c2)cn1 [nilotinib] | – | – | – | – | – | – | – | – | – | – | – | – | > 20

Further compounds by falling IC50 [1, 8], results first:

IC50 [1, 7] [µM] | IC50 [1, 8] [µM] | Compound | SI (KCL22) [2] | GI50 [2] [µM] | SI (K562) [3] | GI50 [3] [µM] | GI50 [4] [µM] | SI (KCL22-B8) [5] | GI50 ([5]; Homo sapiens) [µM] | fold more potent than 7b ([2]; KCL22 cells, GI50 ratio) | fold more potent than 7b ([3]; K562 cells, GI50 ratio) [fold] | GI50 [5] [µM] | GI50 [6] [µM]
0.42 | 0.42 ± 0.08 | COC(=O)c1ccc(Nc2nc(Nc3ccc(N4CCN(CCO)CC4)cc3)nc3c2ncn3CC2CC2)cc1Cl [Compound 7e, Methyl 2-chloro-4-((9-(cyclopropylmethyl)-2-((4-(4-(2-hydroxyethyl)piperazin-1-yl)phenyl)amino)-9H-purin-6-yl)amino)benzoate] | 1.7 | 3.88 ± 1.46 | 2.7 | 2.19 ± 1.42 | 5.98 ± 2.78 | 0.4 | 13.8 | – | – | 15.4 ± 0.98 | –
0.21 | 0.21 ± 0.01 | OCCN1CCN(c2ccc(Nc3nc(Nc4cccc(Br)c4)c4ncn(CC5CC5)c4n3)cc2)CC1 [Compound 7d, 2-(4-(4-((6-((3-Bromophenyl)amino)-9-(cyclopropylmethyl)-9H-purin-2-yl)amino)phenyl)piperazin-1-yl)ethan-1-ol] | 2.7 | 2.96 ± 0.97 | 5.5 | 1.44 ± 0.91 | 7.87 ± 1.53 | 0.4 | 20.1 ± 2.35 | – | – | – | –
0.19 | 0.19 ± 0.05 | N#Cc1cccc(Nc2nc(Nc3ccc(N4CCN(CCO)CC4)nc3)nc3c2ncn3CC2CC2)c1 [Compound 7c, 3-((9-(Cyclopropylmethyl)-2-((6-(4-(2-hydroxyethyl)piperazin-1-yl)pyridin-3-yl)amino)-9H-purin-6-yl)amino)benzonitrile] | 16 | 1.54 ± 1.02 | – | 0.3 ± 0.11 | > 25 | 0.8 | > 25 | approximately 8.5 fold | 13 | – | –
0.13 | 0.13 ± 0.03 | OCCOCCN1CCN(c2ccc(Nc3nc(Nc4cccc(F)c4)c4ncn(CC5CC5)c4n3)cc2)CC1 [Compound 7a, 2-(2-(4-(4-((9-(Cyclopropylmethyl)-6-((3-fluorophenyl)amino)-9H-purin-2-yl)amino)phenyl)piperazin-1-yl)ethoxy)ethan-1-ol] | 2.9 | 2.38 ± 1.12 | 5.0 | 1.37 ± 0.61 | 6.85 ± 0.66 | 0.4 | 17.4 ± 2.02 | – | – | – | –
